# Experimental data: paper PMC13351981, “A multiscale screening platform for rapid GPCR variant profiling reveals color-tuned JSR1 mutants” (Biophysical Journal, 2025)
# Legend:
# Assay in all cases: UV/Vis absorption by HPLC-SEC diode array after reconstitution and purification
# Assay type in all cases: binding
# Conditions in all cases: 50 uM 9-cis retinal reconstitution; covalent (Schiff base to K321); pH 6.5, 20 C, LMNG/CHS
# [1] = biological target: T1, Jumping Spider Rhodopsin 1 (JSR1) (Hasarius adansoni, UniProt B1B1U5)
# T1 construct: gene HaRh1; JSR1 WT + C-terminal 3C site, Twin-Strep, TEV, eGFP, His8; Hi5 insect cells (baculovirus); tags removed by HRV 3C; monomer in LMNG/CHS
# T1 sequence (B1B1U5 entry or part of it): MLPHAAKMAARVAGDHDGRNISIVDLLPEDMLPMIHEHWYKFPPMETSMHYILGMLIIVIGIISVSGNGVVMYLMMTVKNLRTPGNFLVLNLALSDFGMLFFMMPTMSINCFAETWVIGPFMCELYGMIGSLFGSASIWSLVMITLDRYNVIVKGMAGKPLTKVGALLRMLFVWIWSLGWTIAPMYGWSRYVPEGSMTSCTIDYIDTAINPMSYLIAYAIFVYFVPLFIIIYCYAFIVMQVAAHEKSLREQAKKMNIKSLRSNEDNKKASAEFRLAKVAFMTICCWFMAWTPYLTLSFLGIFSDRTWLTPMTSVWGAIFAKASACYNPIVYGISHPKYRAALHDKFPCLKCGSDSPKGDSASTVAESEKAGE
# [2] = biological target: T2, Jumping Spider Rhodopsin 1 (JSR1) (Hasarius adansoni, UniProt B1B1U5, S199V)
# T2 construct: gene HaRh1; JSR1 WT + C-terminal 3C site, Twin-Strep, TEV, eGFP, His8; Hi5 insect cells (baculovirus); tags removed by HRV 3C; monomer in LMNG/CHS
# T2 sequence (B1B1U5 entry or part of it S199V): as the sequence (B1B1U5 entry or part of it) above, with S199V counted along it
# [3] = biological target: T3, Jumping Spider Rhodopsin 1 (JSR1) (Hasarius adansoni, UniProt B1B1U5, S199H)
# T3 construct: gene HaRh1; JSR1 WT + C-terminal 3C site, Twin-Strep, TEV, eGFP, His8; Hi5 insect cells (baculovirus); tags removed by HRV 3C; monomer in LMNG/CHS
# T3 sequence (B1B1U5 entry or part of it S199H): as the sequence (B1B1U5 entry or part of it) above, with S199H counted along it
# [4] = biological target: T4, Jumping Spider Rhodopsin 1 (JSR1) (Hasarius adansoni, UniProt B1B1U5, S199Y)
# T4 construct: gene HaRh1; JSR1 WT + C-terminal 3C site, Twin-Strep, TEV, eGFP, His8; Hi5 insect cells (baculovirus); tags removed by HRV 3C; monomer in LMNG/CHS
# T4 sequence (B1B1U5 entry or part of it S199Y): as the sequence (B1B1U5 entry or part of it) above, with S199Y counted along it
# [5] = biological target: T5, Jumping Spider Rhodopsin 1 (JSR1) (Hasarius adansoni, UniProt B1B1U5, S199L)
# T5 construct: gene HaRh1; JSR1 WT + C-terminal 3C site, Twin-Strep, TEV, eGFP, His8; Hi5 insect cells (baculovirus); tags removed by HRV 3C; monomer in LMNG/CHS
# T5 sequence (B1B1U5 entry or part of it S199L): as the sequence (B1B1U5 entry or part of it) above, with S199L counted along it
# [6] = biological target: T6, Jumping Spider Rhodopsin 1 (JSR1) (Hasarius adansoni, UniProt B1B1U5, S199I)
# T6 construct: gene HaRh1; JSR1 WT + C-terminal 3C site, Twin-Strep, TEV, eGFP, His8; Hi5 insect cells (baculovirus); tags removed by HRV 3C; monomer in LMNG/CHS
# T6 sequence (B1B1U5 entry or part of it S199I): as the sequence (B1B1U5 entry or part of it) above, with S199I counted along it
# [7] = biological target: T7, Jumping Spider Rhodopsin 1 (JSR1) (Hasarius adansoni, UniProt B1B1U5, S199F)
# T7 construct: gene HaRh1; JSR1 WT + C-terminal 3C site, Twin-Strep, TEV, eGFP, His8; Hi5 insect cells (baculovirus); tags removed by HRV 3C; monomer in LMNG/CHS
# T7 sequence (B1B1U5 entry or part of it S199F): as the sequence (B1B1U5 entry or part of it) above, with S199F counted along it
structure (smiles),measurement,setting,value
CC1=C(/C=C/C(C)=C\C=C\C(C)=C\C=O)C(C)(C)CCC1 [9-cis retinal],UV/Vis absorption by HPLC-SEC diode array after reconstitution and purification,[1],We observed that all mutants incorporated 9-cis retinal successfully|established workflow with 9-cis retinal-reconstituted JSR1
same,UV/Vis absorption by HPLC-SEC diode array after reconstitution and purification,[2],These mutations cause a full deprotonation in the 9-cis retinal-bound ground state
same,UV/Vis absorption by HPLC-SEC diode array after reconstitution and purification,[3],These mutations cause a full deprotonation in the 9-cis retinal-bound ground state
same,UV/Vis absorption by HPLC-SEC diode array after reconstitution and purification,[4],These mutations cause a full deprotonation in the 9-cis retinal-bound ground state
same,UV/Vis absorption by HPLC-SEC diode array after reconstitution and purification,[5],These mutations cause a full deprotonation in the 9-cis retinal-bound ground state
same,UV/Vis absorption by HPLC-SEC diode array after reconstitution and purification,[6],These mutations cause a full deprotonation in the 9-cis retinal-bound ground state
same,UV/Vis absorption by HPLC-SEC diode array after reconstitution and purification,[7],These mutations cause a full deprotonation in the 9-cis retinal-bound ground state
